One block for each compound: values may come before it.
Assays:
[1] = Drug metabolism in human liver microsomes assessed as O-dearylation mediated 1-(4-chloro-3-(difluoromethoxy)phenyl)-1H-1,2,3-triazole-4-carboxylic acid metabolite formation at 0.1 uM in presence of NADPH; format: ADME, Microsome
[2] = Unbound brain to plasma concentration ratio in Sprague-Dawley rat at 10 mg/kg, po measured after 0.25 hrs; format: ADME, organism-based; conditions: brain and plasma, read-out: K(p,uu,brain)
[3] = Volume of distribution at steady state in Sprague-Dawley rat at 5 mg/kg, po or 1 mg/kg, iv measured for 24 hrs by LC-MS/MS analysis; format: ADME, organism-based; conditions: in vivo
Brain [4] = test: Ex vivo receptor occupancy at GluN2B receptor in Sprague-Dawley rat brain at 10 mg/kg, po measured after 2 hrs by 3 [3H] 1-(azetidin- 1-yl-2[6-(4-fluoro-3-methyl-pheny)pyrrolo[3,2-b]pyridin-1-yl]ethanon based autoradiography relative to control; format: functional
[5] = Drug concentration in Sprague-Dawley rat plasma at 10 mg/kg, po measured after 0.25 hrs; format: ADME, organism-based
[6] = Drug concentration in Sprague-Dawley rat plasma at 10 mg/kg, po measured after 0.5 hrs; format: ADME, organism-based
Cytochrome P450 2D6 = Cytochrome P450 2D6 (Homo sapiens, UniProt P10635); test: Inhibition of CYP2D6 in human liver microsomes incubated for 10 mins by LC-MS/MS analysis; format: ADME, Microsome
Sequence of Cytochrome P450 2D6 (P10635 whole entry): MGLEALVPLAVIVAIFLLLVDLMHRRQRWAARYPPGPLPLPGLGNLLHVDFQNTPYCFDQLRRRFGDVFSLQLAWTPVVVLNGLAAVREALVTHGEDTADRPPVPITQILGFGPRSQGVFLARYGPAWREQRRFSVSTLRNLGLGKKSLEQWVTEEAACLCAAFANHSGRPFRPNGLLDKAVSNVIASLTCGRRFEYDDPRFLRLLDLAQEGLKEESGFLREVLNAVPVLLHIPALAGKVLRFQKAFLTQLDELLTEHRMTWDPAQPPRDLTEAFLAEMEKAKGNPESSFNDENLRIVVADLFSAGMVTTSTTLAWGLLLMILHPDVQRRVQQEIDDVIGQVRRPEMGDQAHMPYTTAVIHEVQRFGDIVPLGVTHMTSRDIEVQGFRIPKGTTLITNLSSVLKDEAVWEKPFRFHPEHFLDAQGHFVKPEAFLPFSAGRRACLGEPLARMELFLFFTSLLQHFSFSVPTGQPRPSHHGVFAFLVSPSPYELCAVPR

[7] = Cmax in Sprague-Dawley rat at 5 mg/kg, po measured for 24 hrs by LC-MS/MS analysis; format: ADME, organism-based; parameters: time 24 hrs, dose 5 mg/kg, route po; conditions: in vivo
[8] = molecular target: Glutamate receptor ionotropic, NMDA 2B (Rattus norvegicus, UniProt Q00960); test: Displacement of 3-(3H) 1-(azetidin-1-yl)-2-(6- (4-fluoro-3-methyl-phenyl)pyrrolo-[…] pyridin-1yl)ethanone from GluN2B receptor in rat cortical membrane assessed as inhibition constant incubated for 2 hrs under shaking condition by liquid scintillator counter analysis; format: cell membranes, Cortex
Cytochrome P450 2C19 = Cytochrome P450 2C19 (Homo sapiens, UniProt P33261); test: Inhibition of CYP2C19 in human liver microsomes incubated for 10 mins by LC-MS/MS analysis; format: ADME, Microsome
Sequence of Cytochrome P450 2C19 (P33261 whole entry): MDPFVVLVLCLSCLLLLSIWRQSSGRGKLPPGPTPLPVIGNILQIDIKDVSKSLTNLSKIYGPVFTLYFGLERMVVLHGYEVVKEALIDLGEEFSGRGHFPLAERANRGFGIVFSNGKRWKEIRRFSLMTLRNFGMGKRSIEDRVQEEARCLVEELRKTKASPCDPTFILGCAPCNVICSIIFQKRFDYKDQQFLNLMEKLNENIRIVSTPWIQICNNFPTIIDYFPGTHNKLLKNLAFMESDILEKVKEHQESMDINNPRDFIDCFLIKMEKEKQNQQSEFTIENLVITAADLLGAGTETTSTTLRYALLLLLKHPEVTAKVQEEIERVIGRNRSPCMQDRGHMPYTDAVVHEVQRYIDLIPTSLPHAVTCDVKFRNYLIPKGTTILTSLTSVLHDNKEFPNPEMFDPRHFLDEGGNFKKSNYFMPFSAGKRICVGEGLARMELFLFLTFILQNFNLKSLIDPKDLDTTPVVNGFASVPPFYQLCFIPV

[9] = Drug concentration in Sprague-Dawley rat brain at 10 mg/kg, po measured after 0.25 hrs; format: ADME, organism-based; conditions: read-out: Ct
[10] = Drug concentration in Sprague-Dawley rat plasma at 10 mg/kg, po measured after 2 hrs; format: ADME, organism-based
[11] = molecular target: Voltage-gated inwardly rectifying potassium channel KCNH2 (Homo sapiens, UniProt Q12809); test: Displacement of [3H]dofetilide from human ERG expressed in HEK293 cells; format: toxicity, cell-based
Sequence of Voltage-gated inwardly rectifying potassium channel KCNH2 (Q12809 whole entry): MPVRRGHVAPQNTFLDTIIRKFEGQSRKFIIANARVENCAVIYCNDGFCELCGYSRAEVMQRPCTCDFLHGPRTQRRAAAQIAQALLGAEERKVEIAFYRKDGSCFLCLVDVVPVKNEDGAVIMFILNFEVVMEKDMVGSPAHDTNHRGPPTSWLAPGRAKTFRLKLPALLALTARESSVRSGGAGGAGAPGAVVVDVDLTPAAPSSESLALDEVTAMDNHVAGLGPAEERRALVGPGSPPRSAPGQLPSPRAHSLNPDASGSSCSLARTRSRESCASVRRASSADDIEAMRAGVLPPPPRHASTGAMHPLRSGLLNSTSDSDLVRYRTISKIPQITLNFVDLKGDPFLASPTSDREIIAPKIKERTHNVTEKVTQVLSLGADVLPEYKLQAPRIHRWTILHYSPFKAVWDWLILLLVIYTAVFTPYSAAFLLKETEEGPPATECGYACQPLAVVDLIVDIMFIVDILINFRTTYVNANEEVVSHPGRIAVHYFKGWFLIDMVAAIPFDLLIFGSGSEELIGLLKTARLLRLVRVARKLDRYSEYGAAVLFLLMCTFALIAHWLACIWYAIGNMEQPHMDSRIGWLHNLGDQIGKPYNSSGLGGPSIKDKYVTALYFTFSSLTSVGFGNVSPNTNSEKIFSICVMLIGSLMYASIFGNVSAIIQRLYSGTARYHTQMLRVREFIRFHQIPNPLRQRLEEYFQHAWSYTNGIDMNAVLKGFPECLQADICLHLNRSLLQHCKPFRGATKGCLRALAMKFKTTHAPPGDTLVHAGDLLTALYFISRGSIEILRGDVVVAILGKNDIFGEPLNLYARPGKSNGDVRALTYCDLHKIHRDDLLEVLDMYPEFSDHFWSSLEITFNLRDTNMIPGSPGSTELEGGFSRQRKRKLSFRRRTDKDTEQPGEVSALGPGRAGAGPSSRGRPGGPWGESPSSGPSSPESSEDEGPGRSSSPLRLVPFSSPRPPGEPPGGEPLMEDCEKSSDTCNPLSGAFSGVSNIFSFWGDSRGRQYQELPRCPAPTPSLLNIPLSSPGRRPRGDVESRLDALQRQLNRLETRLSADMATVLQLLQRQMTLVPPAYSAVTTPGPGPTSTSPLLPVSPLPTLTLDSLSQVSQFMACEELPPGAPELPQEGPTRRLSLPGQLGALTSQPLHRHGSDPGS

Hippocampus = test: Ex vivo receptor occupancy at GluN2B receptor in Sprague-Dawley rat brain hippocampus at 0.01 to 3 mg/kg, po measured after 2 hrs by 3 [3H] 1-(azetidin- 1-yl-2[6-(4-fluoro-3-methyl-pheny)pyrrolo[3,2-b]pyridin-1-yl]ethanon based autoradiography relative to control; format: functional; conditions: dose 0.01-3 mg/kg
Brain [12] = test: Ex vivo receptor occupancy at GluN2B receptor in Sprague-Dawley rat brain at 10 mg/kg, po measured after 0.5 hrs by 3 [3H] 1-(azetidin- 1-yl-2[6-(4-fluoro-3-methyl-pheny)pyrrolo[3,2-b]pyridin-1-yl]ethanon based autoradiography relative to control; format: functional
[13] = molecular target: Glutamate NMDA receptor; GRIN1/GRIN2B (Homo sapiens, UniProt Q05586+Q13224); test: Negative allosteric modulation of human GluN1A/GluN2B receptor expressed in T-REX-CHO cells preincubated for 5 mins followed by glutamate and glycine addition and measured after 5 mins by FLIPR assay; format: cell-based
Sequence of Glutamate NMDA receptor; GRIN1/GRIN2B (Q13224 whole entry, other chains not shown): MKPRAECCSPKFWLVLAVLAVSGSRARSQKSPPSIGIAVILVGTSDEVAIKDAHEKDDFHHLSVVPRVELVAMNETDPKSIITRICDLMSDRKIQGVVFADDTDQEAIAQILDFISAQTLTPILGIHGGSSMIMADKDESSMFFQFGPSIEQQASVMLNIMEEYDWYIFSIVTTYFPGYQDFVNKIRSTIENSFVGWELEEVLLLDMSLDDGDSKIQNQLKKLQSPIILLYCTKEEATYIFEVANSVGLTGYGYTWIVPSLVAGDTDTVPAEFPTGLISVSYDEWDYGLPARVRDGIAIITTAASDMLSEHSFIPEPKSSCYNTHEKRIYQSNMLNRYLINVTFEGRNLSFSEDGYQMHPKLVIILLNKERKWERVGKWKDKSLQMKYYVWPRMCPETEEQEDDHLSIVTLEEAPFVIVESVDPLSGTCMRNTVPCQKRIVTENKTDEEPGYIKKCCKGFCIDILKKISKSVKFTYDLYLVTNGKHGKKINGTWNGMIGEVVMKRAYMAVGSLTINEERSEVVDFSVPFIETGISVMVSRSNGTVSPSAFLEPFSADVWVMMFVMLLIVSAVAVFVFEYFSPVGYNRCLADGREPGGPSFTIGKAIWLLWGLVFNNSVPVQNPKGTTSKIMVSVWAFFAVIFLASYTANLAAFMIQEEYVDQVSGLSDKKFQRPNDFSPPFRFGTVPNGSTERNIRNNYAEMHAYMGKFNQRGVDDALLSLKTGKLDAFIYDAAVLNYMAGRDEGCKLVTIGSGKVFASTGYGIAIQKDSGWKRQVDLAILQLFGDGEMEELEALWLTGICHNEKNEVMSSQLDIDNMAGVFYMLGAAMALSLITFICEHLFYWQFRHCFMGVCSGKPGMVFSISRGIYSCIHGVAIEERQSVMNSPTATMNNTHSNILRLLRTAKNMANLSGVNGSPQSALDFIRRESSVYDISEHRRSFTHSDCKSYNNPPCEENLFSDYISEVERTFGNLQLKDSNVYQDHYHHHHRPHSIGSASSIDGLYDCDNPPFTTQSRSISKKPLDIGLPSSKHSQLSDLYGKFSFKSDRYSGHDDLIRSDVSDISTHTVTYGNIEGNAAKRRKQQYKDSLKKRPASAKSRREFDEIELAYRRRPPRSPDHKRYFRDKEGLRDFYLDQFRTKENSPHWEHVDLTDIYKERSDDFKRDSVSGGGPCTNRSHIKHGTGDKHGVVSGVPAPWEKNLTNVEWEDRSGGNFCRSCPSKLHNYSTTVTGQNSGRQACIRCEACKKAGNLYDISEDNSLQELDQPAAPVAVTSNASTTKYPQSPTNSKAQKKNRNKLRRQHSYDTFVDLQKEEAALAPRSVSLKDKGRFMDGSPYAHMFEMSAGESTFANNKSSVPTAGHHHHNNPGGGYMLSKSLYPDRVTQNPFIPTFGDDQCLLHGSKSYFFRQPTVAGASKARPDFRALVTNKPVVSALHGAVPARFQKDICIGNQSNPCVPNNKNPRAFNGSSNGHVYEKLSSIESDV

[14] = Drug concentration in Sprague-Dawley rat brain at 10 mg/kg, po measured after 2 hrs; format: ADME, organism-based; conditions: read-out: Ct
[15] = molecular target: Glutamate receptor ionotropic, NMDA 2D (Homo sapiens, UniProt O15399+Q05586); test: Inhibition of human GluN2D receptor by FLIPR assay
Brain [16] = test: Ex vivo receptor occupancy at GluN2B receptor in Sprague-Dawley rat brain at 10 mg/kg, po measured after 0.25 hrs by 3 [3H] 1-(azetidin- 1-yl-2[6-(4-fluoro-3-methyl-pheny)pyrrolo[3,2-b]pyridin-1-yl]ethanon based autoradiography relative to control; format: functional
[17] = Oral bioavailability in Sprague-Dawley rat at 5 mg/kg measured for 24 hrs by LC-MS/MS analysis; format: ADME, organism-based; conditions: in vivo
[18] = Drug metabolism in rat hepatocytes at 0.01 to 0.1 uM incubated for 4 hrs; format: ADME, cell-based, Hepatocyte; conditions: dose 0.01-0.1 µM
[19] = molecular target: Glutamate receptor ionotropic, NMDA 2A (Homo sapiens, UniProt Q05586+Q12879); test: Inhibition of human GluN2A receptor by FLIPR assay
[20] = Drug metabolism in rat liver microsomes at 0.014 to 0.37 uM incubated for 60 mins; format: ADME, Microsome; conditions: 1 h, dose 0.014-0.37 µM
[21] = Unbound brain to plasma concentration ratio in Sprague-Dawley rat at 10 mg/kg, po measured after 2 hrs; format: ADME, organism-based; conditions: brain and plasma, read-out: K(p,uu,brain)
Cytochrome P450 2C9 = Cytochrome P450 2C9 (Homo sapiens, UniProt P11712); test: Inhibition of CYP2C9 in human liver microsomes incubated for 10 mins by LC-MS/MS analysis; format: ADME, Microsome
Sequence of Cytochrome P450 2C9 (P11712 whole entry): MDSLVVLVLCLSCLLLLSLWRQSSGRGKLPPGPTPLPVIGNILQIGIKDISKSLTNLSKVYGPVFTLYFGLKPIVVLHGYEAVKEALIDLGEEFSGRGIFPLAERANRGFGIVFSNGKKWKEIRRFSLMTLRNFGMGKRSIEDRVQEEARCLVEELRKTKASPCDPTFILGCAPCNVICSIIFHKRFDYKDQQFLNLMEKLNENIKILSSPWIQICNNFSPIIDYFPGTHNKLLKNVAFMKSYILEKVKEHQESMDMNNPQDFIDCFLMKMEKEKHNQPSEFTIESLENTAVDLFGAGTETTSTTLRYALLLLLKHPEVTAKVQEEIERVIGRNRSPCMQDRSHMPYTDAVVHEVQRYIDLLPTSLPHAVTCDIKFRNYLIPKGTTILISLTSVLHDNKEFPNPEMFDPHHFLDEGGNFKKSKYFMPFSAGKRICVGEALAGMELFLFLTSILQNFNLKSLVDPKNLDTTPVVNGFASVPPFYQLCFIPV

[22] = Drug concentration in Sprague-Dawley rat brain assessed as free fraction; format: ADME, tissue-based
[23] = Drug concentration in Sprague-Dawley rat brain at 10 mg/kg, po measured after 0.5 hrs; format: ADME, organism-based; conditions: read-out: Ct
[24] = Unbound brain to plasma concentration ratio in Sprague-Dawley rat at 10 mg/kg, po measured after 0.5 hrs; format: ADME, organism-based; conditions: brain and plasma, read-out: K(p,uu,brain)
Cytochrome P450 2C8 = molecular target: T1, Cytochrome P450 2C8 (Homo sapiens, UniProt P10632); test: Inhibition of CYP2C8 in human liver microsomes incubated for 10 mins by LC-MS/MS analysis; format: ADME, Microsome
T1 sequence (P10632 whole entry): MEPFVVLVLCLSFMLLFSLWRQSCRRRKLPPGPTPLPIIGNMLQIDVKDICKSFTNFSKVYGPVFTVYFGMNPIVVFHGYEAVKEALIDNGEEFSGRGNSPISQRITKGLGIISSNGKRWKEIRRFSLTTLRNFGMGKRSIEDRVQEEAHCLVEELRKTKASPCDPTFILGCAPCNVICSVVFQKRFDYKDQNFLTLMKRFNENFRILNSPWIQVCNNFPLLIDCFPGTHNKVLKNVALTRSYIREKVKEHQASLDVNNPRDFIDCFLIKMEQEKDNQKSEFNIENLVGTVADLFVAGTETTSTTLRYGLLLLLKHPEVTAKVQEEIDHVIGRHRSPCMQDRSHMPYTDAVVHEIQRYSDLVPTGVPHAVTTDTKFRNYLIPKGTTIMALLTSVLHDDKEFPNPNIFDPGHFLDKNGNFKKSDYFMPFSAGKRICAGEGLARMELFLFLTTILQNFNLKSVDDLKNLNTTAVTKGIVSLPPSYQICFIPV

Cytochrome P450 1A2 = molecular target: T2, Cytochrome P450 1A2 (Homo sapiens, UniProt P05177); test: Inhibition of CYP1A2 in human liver microsomes incubated for 10 mins by LC-MS/MS analysis; format: ADME, Microsome
T2 sequence (P05177 whole entry): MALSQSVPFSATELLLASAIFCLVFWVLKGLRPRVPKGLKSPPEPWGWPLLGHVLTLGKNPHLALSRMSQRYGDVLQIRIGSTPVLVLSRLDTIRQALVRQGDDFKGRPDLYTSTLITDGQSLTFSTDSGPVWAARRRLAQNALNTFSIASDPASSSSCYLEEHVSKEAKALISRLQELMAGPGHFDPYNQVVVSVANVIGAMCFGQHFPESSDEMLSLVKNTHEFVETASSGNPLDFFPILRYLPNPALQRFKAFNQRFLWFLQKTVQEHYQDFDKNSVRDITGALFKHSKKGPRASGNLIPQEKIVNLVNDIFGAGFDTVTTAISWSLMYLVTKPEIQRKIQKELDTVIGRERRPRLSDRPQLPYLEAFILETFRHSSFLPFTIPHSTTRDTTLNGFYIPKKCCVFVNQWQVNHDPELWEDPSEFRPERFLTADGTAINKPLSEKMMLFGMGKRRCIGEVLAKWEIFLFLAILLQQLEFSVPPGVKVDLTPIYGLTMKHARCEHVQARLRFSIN

[25] = Drug metabolism in human liver microsomes assessed as O-dearylation mediated (1-(4-chloro-3-(difluoromethoxy)phenyl)-1H-1,2,3-triazol-4-yl)methanol metabolite formation at 0.1 uM in presence of NADPH; format: ADME, Microsome
[26] = molecular target: Glutamate receptor ionotropic, NMDA 2C (Homo sapiens, UniProt Q05586+Q14957); test: Inhibition of human GluN2C receptor by FLIPR assay
MDR1 (P-gp) = test: Efflux ratio of apparent permeability from basolateral to apical side over apical to basolateral side in MDCK-MDR1 cells at 5 uM incubated for 60 mins by LC-MS/MS analysis; format: ADME, cell-based, Canis lupus familiaris; conditions: dog
[27] = Plasma protein binding in Sprague-Dawley rat assessed as free fraction; format: ADME, cell-free
Cytochrome P450 3A4 = Cytochrome P450 3A4 (Homo sapiens, UniProt P08684); test: Inhibition of CYP3A4 in human liver microsomes incubated for 10 mins by LC-MS/MS analysis; format: ADME, Microsome
Sequence of Cytochrome P450 3A4 (P08684 whole entry): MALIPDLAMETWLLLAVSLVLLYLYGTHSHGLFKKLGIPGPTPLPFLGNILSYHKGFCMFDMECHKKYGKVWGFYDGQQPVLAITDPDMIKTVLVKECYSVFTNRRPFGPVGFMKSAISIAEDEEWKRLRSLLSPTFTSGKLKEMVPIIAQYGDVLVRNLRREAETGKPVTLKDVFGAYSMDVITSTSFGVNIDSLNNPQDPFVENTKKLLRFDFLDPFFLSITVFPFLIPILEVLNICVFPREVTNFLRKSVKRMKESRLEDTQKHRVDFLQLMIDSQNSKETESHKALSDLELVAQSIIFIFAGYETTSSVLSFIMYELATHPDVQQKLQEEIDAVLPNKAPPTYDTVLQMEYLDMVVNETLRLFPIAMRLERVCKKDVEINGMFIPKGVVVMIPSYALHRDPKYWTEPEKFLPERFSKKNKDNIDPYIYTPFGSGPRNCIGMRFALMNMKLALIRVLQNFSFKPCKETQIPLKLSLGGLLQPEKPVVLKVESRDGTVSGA

Drug metabolism [1]: Metabolite_Detected | Kp uu at 0.25 h [2]: 0.91 | Vdss [3]: 0.51 L/kg | concentration at 0.25 h [5]: 3040 ng/mL | concentration at 0.5 h [6]: 5120 ng/mL | IC50 (Cytochrome P450 2D6): > 10 µM | Cmax [7]: 808 ng/mL | Ki [8]: 0.094 µM | IC50 (Cytochrome P450 2C19): > 10 µM | concentration at 0.25 h [9]: 1290 ng/g | concentration at 2 h [10]: 8650 ng/mL | IC50 [13]: 0.011 µM | concentration at 2 h [14]: 3010 ng/g | IC50 [15]: > 10 µM | bioavailability [17]: 78% | Drug metabolism [18]: Metabolite_Detected | IC50 [19]: > 10 µM | Drug metabolism [20]: Metabolite_Detected | Kp uu at 2 h [21]: 0.72 | IC50 (Cytochrome P450 2C9): > 10 µM | fraction unbound [22]: 0.051 | concentration at 0.5 h [23]: 1920 ng/g | Kp uu at 0.5 h [24]: 0.78 | IC50 (Cytochrome P450 2C8): > 10 µM | IC50 (Cytochrome P450 1A2): > 10 µM | Drug metabolism [25]: Metabolite_Detected | IC50 [26]: > 10 µM | efflux ratio at 1 h, 5 µM (MDR1 (P-gp)): 1 | fraction unbound [27]: 0.024
Compound: FC(F)Oc1cc(-n2cc(COc3ncccn3)nn2)ccc1Cl
Occ (Brain [4]): 85% | IC50 [11]: > 10 µM | Occ (Hippocampus): <10% | Occ (Brain [12]): 92% | Occ (Brain [16]): 71%

IC50 (Cytochrome P450 3A4): 2.6 µM | IC50 (Cytochrome P450 2D6): 0.03 µM | Ki [8]: 0.035 µM | IC50 (Cytochrome P450 2C19): 0.42 µM | IC50 [13]: 0.059 µM | IC50 (Cytochrome P450 2C9): 1.1 µM | IC50 (Cytochrome P450 2C8): 3.4 µM | IC50 (Cytochrome P450 1A2): 0.11 µM | efflux ratio at 1 h, 5 µM (MDR1 (P-gp)): 3.9
Compound: FC(F)Oc1cc(-n2cc(Cn3ccnc3)nn2)ccc1Cl
IC50 [11]: > 10 µM

IC50 (Cytochrome P450 3A4): > 10 µM | IC50 (Cytochrome P450 2D6): > 10 µM | Ki [8]: 0.56 µM | IC50 (Cytochrome P450 2C19): > 10 µM | IC50 [13]: 0.36 µM | IC50 (Cytochrome P450 2C9): > 10 µM | IC50 (Cytochrome P450 2C8): > 10 µM | IC50 (Cytochrome P450 1A2): > 10 µM | efflux ratio at 1 h, 5 µM (MDR1 (P-gp)): 1.1
Compound: FC(F)Oc1cc(-n2cc(CNc3ncccn3)nn2)ccc1Cl
IC50 [11]: > 10 µM

Reference: ChEMBL document CHEMBL5316339, “Discovery of a Series of Substituted 1H-((1,2,3-Triazol-4-yl)methoxy)pyrimidines as Brain Penetrants and Potent GluN2B-Selective Negative Allosteric Modulators” (J Med Chem, 2023)
